Measurements: patent publication US11986000B2, “Whey protein extracts and their use as sphingomyelin source” (SOCIETE DES PRODUITS NESTLE S.A., priority 2017, dated 2024)

Experiment: Determination of total SM in raw materials and finished product by HPLC-ELSD
Conditions: analysed versus theoretical SM in infant formula powders
Experimental: 1.2. Determination of Total SM in Raw Materials and Finished Product by HPLC-ELSD
Calibration standard stock solution was prepared by dissolving 140 mg of certified milk lecithin and 10 mg of PG (internal standard) in 100 mL of chloroform/methanol (9/1, v/v) solution. Further dilutions of this solution was performed in chloroform/methanol (9/1, v/v) to yield six standard levels, ranging from 0.012 to 0.249 g L−1 for SM and 0.005 to 0.100 g L^−1 for PG.
Sample extraction and chromatographic analysis, including chromatography columns and detector settings, were completed according to the procedure as described by Braun et al. (2010) with the following minor modifications. […] EZChrom software package (Agilent Technologies) was used to control the chromatograph and results were analysed using OpenLab software (Agilent Technologies).
SM was identified within the certified milk lecithin based on peak location in the elution sequence, retention time and characteristic peak shape, as described by Braun et al. (2010). […] A six-point calibration curve was prepared for both SM ([…], R^2=:=::0.996) and PG (0.025-0.507 g L^−1, R^2=:=::0.996) for quantification. […] Quantification of SM was as described by Braun et al. (2010) using the following equation: […]

Substance: sphingomyelin [SM]
- Stability of SM during the manufacturing processes: stable against degradation
